# Calls of active or inactive are those of the source. No cut-off for these calls is given here.
# Columns and labels:
# D(1A) dopamine receptor = D(1A) dopamine receptor (Homo sapiens, UniProt P21728); experiment: Inhibition of human dopamine D1 receptor
# D(3) dopamine receptor = D(3) dopamine receptor (Homo sapiens, UniProt P35462); experiment: Inhibition of human dopamine D3 receptor
# D(4) dopamine receptor = target: T1, D(4) dopamine receptor (Homo sapiens, UniProt P21917); experiment: Inhibition of human dopamine D4 receptor
# T1 sequence (P21917 whole entry): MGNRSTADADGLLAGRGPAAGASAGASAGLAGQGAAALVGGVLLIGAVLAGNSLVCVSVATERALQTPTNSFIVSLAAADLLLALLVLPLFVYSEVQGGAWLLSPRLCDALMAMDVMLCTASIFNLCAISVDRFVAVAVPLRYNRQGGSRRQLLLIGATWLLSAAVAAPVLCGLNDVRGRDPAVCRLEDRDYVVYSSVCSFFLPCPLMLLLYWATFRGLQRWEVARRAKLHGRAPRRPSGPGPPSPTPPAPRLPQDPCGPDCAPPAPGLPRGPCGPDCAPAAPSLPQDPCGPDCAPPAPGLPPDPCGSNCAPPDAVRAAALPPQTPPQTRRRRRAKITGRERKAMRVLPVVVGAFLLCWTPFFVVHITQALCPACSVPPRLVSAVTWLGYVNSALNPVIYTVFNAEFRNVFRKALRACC
# [1] = target: T2, D(4) dopamine receptor (Homo sapiens) (UniProt P21917); experiment: Inhibition of human dopamine D4 receptor at 10 uM
# T2 sequence (whole entry): T1 sequence (P21917 whole entry)
# [2] = target: D(1B) dopamine receptor (Homo sapiens) (UniProt P21918); experiment: Inhibition of human dopamine D5 receptor
# D(2) dopamine receptor [3] = target: T3, D(2) dopamine receptor (Homo sapiens, UniProt P14416); experiment: Inhibition of human dopamine D2S receptor
# D(2) dopamine receptor [4] = target: T3, D(2) dopamine receptor; experiment: Inhibition of human dopamine D2L receptor
# [5] = target: T4, Alpha-1A adrenergic receptor (Homo sapiens) (UniProt P35348); experiment: Binding affinity to adrenergic alpha1A receptor (unknown origin) at 10 uM by radioligand binding assay
# T4 sequence (whole entry): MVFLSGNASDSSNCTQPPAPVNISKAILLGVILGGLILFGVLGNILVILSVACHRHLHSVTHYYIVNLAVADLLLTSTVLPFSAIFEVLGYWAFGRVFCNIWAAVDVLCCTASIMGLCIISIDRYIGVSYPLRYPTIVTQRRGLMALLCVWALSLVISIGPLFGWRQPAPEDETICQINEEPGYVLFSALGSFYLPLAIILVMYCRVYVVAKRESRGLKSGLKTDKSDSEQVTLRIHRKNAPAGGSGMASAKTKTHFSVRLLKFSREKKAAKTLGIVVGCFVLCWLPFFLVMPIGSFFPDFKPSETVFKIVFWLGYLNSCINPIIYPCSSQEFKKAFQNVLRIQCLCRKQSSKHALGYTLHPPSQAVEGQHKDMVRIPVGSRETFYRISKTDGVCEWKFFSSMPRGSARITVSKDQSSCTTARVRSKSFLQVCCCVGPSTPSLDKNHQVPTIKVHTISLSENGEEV
# [6] = target: Histamine H1 receptor (Homo sapiens) (UniProt P35367); experiment: Binding affinity to histamine H1 receptor (unknown origin) at 10 uM by radioligand binding assay
# [7] = target: Sigma non-opioid intracellular receptor 1 (Homo sapiens) (UniProt Q99720); experiment: Binding affinity to sigma 1 receptor (unknown origin) at 10 uM by radioligand binding assay
# [8] = target: Sodium-dependent dopamine transporter (Homo sapiens) (UniProt Q01959); experiment: Binding affinity to dopamine transporter (unknown origin) at 10 uM by radioligand binding assay
# [9] = target: Sodium-dependent noradrenaline transporter (Homo sapiens) (UniProt P23975); experiment: Binding affinity to norepinephrine transporter (unknown origin) at 10 uM by radioligand binding assay
# [10] = Fraction unbound in human plasma; type: ADME, cell-free
# [11] = Fraction unbound in rat plasma; type: ADME, cell-free
# Cytochrome P450 1A2 = target: T5, Cytochrome P450 1A2 (Homo sapiens, UniProt P05177); experiment: Inhibition of human CYP1A2 by electrospray ionization; type: ADME
# T5 sequence (P05177 whole entry): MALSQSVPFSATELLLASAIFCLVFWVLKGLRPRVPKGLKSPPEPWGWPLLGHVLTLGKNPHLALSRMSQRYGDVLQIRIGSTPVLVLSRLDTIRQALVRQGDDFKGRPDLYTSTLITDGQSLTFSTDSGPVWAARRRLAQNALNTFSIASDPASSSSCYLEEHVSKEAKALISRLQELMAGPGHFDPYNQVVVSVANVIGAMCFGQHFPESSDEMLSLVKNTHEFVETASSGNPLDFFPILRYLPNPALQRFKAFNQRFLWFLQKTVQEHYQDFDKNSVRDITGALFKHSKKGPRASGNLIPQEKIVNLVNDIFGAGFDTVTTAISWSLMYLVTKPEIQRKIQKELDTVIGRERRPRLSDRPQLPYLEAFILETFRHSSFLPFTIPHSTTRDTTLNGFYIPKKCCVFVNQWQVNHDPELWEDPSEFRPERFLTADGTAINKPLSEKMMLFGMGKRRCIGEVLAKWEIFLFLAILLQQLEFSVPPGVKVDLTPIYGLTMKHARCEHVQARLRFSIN
# Cytochrome P450 2C9 = Cytochrome P450 2C9 (Homo sapiens, UniProt P11712); experiment: Inhibition of human CYP2C9 by electrospray ionization; type: ADME
# Cytochrome P450 2D6 = Cytochrome P450 2D6 (Homo sapiens, UniProt P10635); experiment: Inhibition of human CYP2D6 by electrospray ionization; type: ADME
# Cytochrome P450 3A4 = Cytochrome P450 3A4 (Homo sapiens, UniProt P08684); experiment: Inhibition of human CYP3A4 by electrospray ionization; type: ADME
# [12] = Drug uptake in Sprague-Dawley rat plasma at 10 mg/kg, ip after 0.25 hrs; type: ADME, organism-based; parameters: dose 10 mg/kg, route intraperitoneal
# [13] = Drug uptake in Sprague-Dawley rat brain at 10 mg/kg, ip after 0.25 hrs; type: ADME, organism-based; parameters: dose 10 mg/kg, route intraperitoneal
# [14] = Ratio of drug level in Sprague-Dawley rat brain to plasma at 10 mg/kg, ip after 0.25 hrs; type: ADME, organism-based; parameters: dose 10 mg/kg, route intraperitoneal
# Rattus norvegicus [15] = experiment: Reversal of cocaine-induced hyperlocomotion in Sprague-Dawley rat at 10 mg/kg, ip; type: functional, organism-based; parameters: dose 10 mg/kg
# D(2) dopamine receptor [16] = target: T3, D(2) dopamine receptor; experiment: Inhibition of human dopamine D2 receptor
# Rattus norvegicus [17] = experiment: Reversal of cocaine-induced hyperlocomotion in Sprague-Dawley rat at 3 mg/kg, ip; type: functional, organism-based; parameters: dose 3 mg/kg
# Chain of D(3) dopamine receptor (P35462 whole entry): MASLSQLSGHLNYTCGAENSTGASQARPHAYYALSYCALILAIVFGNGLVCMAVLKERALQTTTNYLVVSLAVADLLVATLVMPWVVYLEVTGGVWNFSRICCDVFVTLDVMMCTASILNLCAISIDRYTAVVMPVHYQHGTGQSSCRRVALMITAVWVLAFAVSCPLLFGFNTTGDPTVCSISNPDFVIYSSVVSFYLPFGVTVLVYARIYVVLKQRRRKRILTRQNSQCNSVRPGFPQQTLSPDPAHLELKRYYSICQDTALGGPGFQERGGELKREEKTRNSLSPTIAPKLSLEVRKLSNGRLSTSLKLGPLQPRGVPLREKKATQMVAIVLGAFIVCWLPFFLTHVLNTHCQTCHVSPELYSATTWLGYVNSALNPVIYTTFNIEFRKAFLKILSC
# Chain of D(1A) dopamine receptor (P21728 whole entry): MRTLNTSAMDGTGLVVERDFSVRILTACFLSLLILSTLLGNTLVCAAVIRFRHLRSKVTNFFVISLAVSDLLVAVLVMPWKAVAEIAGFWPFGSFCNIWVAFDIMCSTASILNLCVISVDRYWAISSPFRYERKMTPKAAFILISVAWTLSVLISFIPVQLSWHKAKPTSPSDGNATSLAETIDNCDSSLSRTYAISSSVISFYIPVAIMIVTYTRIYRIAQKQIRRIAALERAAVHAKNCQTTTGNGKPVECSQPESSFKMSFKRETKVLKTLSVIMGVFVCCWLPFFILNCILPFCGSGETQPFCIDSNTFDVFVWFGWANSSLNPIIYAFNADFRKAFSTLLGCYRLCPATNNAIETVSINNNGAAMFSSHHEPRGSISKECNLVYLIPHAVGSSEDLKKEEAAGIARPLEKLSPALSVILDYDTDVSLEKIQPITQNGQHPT
# Chain of D(1B) dopamine receptor (Homo sapiens) (P21918 whole entry): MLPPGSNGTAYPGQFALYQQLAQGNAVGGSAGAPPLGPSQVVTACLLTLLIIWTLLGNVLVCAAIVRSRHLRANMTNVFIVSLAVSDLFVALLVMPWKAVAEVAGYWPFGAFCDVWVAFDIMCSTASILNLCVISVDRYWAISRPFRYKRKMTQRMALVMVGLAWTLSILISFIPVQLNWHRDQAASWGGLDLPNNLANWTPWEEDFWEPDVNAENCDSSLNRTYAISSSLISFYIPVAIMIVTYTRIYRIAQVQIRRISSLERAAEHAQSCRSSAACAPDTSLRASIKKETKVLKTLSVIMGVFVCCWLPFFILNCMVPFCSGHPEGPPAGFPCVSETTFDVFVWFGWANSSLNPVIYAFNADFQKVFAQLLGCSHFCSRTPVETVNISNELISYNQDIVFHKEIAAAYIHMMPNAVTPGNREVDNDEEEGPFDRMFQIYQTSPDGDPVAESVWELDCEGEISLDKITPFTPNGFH
# T3 sequence (P14416 whole entry): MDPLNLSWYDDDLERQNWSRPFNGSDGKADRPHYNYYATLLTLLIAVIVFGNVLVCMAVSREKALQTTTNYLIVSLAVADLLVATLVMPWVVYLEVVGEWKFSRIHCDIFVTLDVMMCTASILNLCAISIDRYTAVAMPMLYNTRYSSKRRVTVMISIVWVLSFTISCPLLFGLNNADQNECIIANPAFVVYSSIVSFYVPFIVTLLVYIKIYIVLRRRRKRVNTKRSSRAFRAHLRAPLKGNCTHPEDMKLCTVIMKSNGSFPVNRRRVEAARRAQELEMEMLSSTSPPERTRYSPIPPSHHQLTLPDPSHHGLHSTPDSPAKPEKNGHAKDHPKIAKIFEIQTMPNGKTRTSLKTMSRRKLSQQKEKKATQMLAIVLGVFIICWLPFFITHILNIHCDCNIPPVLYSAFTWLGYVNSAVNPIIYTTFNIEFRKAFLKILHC
# Chain of Cytochrome P450 3A4 (P08684 whole entry): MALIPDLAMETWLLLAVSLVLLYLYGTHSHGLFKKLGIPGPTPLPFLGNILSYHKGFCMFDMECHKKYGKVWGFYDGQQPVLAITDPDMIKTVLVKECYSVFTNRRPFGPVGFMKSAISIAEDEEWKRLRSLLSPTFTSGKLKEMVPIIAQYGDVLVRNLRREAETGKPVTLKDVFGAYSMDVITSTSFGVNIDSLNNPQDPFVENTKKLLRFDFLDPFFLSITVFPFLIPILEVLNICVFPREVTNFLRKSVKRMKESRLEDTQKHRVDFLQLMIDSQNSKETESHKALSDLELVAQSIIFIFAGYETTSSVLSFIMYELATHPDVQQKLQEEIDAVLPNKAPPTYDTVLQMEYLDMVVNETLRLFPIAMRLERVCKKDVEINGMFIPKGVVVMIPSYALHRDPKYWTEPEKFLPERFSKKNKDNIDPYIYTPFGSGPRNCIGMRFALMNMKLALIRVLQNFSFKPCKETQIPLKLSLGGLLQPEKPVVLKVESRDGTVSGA
# Chain of Cytochrome P450 2D6 (P10635 whole entry): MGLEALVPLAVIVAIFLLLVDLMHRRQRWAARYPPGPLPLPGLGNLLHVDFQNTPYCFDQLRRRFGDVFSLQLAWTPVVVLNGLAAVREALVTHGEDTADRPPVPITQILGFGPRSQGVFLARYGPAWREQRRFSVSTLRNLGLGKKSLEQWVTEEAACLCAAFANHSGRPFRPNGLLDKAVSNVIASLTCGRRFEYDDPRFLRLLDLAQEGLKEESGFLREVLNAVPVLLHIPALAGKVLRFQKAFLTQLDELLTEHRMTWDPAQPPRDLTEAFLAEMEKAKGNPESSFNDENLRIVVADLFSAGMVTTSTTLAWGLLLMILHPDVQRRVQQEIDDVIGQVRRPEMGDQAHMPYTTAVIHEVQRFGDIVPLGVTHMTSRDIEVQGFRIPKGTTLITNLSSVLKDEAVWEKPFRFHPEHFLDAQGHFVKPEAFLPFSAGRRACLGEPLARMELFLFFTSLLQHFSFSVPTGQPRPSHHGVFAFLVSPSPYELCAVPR
# Chain of Cytochrome P450 2C9 (P11712 whole entry): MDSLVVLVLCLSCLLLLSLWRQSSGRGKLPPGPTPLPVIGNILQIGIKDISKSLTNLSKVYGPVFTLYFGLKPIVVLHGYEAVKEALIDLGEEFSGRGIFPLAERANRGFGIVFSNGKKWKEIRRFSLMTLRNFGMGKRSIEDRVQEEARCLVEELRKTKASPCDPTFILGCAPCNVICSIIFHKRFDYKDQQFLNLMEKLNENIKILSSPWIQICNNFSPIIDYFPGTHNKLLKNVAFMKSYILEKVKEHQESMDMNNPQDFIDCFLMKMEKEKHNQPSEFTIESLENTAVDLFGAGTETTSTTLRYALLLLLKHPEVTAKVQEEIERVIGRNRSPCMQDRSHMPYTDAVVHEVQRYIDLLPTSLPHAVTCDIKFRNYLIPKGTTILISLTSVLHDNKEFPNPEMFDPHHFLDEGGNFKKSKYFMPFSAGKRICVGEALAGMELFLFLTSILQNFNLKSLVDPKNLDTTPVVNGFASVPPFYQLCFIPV
# Chain of Histamine H1 receptor (Homo sapiens) (P35367 whole entry): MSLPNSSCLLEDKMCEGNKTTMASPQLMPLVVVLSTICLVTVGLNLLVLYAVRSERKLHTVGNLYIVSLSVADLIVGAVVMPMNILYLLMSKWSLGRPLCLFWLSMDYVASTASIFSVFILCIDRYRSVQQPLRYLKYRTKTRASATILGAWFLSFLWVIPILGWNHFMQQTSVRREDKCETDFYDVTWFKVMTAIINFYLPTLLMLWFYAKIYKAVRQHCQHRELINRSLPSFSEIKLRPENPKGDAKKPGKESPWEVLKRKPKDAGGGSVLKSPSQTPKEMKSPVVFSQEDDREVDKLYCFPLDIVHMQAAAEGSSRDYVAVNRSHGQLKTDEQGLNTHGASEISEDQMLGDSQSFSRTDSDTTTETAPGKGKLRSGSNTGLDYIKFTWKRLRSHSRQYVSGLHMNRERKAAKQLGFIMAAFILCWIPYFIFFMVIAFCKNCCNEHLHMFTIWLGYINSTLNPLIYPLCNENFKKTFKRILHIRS
# Chain of Sigma non-opioid intracellular receptor 1 (Homo sapiens) (Q99720 whole entry): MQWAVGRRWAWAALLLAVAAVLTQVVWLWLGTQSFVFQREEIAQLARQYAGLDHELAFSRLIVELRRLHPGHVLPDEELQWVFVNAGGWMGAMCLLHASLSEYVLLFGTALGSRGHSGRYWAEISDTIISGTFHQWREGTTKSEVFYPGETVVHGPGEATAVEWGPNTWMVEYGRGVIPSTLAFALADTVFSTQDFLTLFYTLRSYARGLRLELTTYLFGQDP
# Chain of Sodium-dependent noradrenaline transporter (Homo sapiens) (P23975 whole entry): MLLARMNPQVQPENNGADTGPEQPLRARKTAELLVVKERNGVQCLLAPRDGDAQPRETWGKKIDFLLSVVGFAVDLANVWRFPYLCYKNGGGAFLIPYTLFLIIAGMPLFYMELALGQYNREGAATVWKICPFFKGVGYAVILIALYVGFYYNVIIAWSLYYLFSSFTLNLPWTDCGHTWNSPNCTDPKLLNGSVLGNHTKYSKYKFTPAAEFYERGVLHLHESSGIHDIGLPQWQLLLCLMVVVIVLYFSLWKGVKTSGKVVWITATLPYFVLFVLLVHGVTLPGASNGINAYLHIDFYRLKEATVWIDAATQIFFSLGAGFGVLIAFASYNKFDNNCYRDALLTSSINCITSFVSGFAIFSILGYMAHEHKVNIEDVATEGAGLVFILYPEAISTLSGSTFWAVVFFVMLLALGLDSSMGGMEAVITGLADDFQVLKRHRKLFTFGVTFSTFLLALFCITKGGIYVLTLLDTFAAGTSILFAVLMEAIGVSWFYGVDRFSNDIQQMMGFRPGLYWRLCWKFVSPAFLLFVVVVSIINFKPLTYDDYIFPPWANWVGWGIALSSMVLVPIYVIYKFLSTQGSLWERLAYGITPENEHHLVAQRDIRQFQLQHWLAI
smiles,measurement,setting,value
COc1ccc(CN2CCOC(CCc3ccccc3)C2)cc1 (racemic),INH,D(1A) dopamine receptor,> 20 µM
same,IC50,D(3) dopamine receptor,8.17 µM
same,Ki,D(3) dopamine receptor,2.77 µM
same,IC50,D(4) dopamine receptor,170 nM
same,Ki,D(4) dopamine receptor,46 nM
same,inhibition,[1],98%
same,INH,[2],> 20 µM
same,INH,D(2) dopamine receptor [3],> 20 µM
same,IC50,D(2) dopamine receptor [4],16.5 µM
c1ccc(CCC2CN(Cc3ccncc3)CCO2)cc1 (racemic),inhibition,[1],13%
Fc1cccc(F)c1CN1CCOC(CCc2ccccc2)C1 (racemic),IC50,D(4) dopamine receptor,3880 nM
same,Ki,D(4) dopamine receptor,1070 nM
same,inhibition,[1],51%
c1ccc(CCC2CN(Cc3cccnc3)CCO2)cc1 (racemic),inhibition,[1],35%
O=C(Nc1ccc(F)cc1)N1CCOC(CCc2ccccc2)C1 (racemic),inhibition,[1],5%
Clc1ccc(CN2CCOC(CCc3ccccc3)C2)cc1 (racemic),INH,D(1A) dopamine receptor,> 20 µM
same,INH,D(3) dopamine receptor,> 20 µM
same,IC50,D(4) dopamine receptor,290 nM
same,Ki,D(4) dopamine receptor,81 nM
same,inhibition,[1],97%
same,INH,[2],> 20 µM
same,INH,D(2) dopamine receptor [3],> 20 µM
same,INH,D(2) dopamine receptor [4],> 20 µM
FC(F)(F)Oc1cccc(CN2CCOC(CCc3ccccc3)C2)c1 (racemic),IC50,D(4) dopamine receptor,390 nM
same,Ki,D(4) dopamine receptor,110 nM
same,inhibition,[1],88%
Clc1ccc(CN2CCO[C@H](CCc3ccccc3)C2)cc1,INH,D(1A) dopamine receptor,> 20 µM
same,INH,D(3) dopamine receptor,> 20 µM
same,IC50,D(4) dopamine receptor,130 nM
same,Ki,D(4) dopamine receptor,36 nM
same,inhibition,[1],96%
same,INH,[2],> 20 µM
same,INH,D(2) dopamine receptor [3],> 20 µM
same,INH,D(2) dopamine receptor [4],> 20 µM
same,Activity,[5],77%
same,Activity,[6],93%
same,Activity,[7],99%
same,Activity,[8],72%
same,Activity,[9],68%
same,fraction unbound,[10],0.061
same,fraction unbound,[11],0.039
same,IC50,Cytochrome P450 1A2,> 30 µM
same,IC50,Cytochrome P450 2C9,> 30 µM
same,IC50,Cytochrome P450 2D6,18 µM
same,IC50,Cytochrome P450 3A4,> 30 µM
same,concentration at 0.25 h,[12],482 nM
same,concentration at 0.25 h,[13],987 nM
same,Kp at 0.25 h,[14],2
same,Activity,Rattus norvegicus [15],Active
O=S(=O)(c1ccccc1)N1CCOC(CCc2ccccc2)C1 (racemic),inhibition,[1],2%
c1ccc(CCC2CN(Cc3nc4ccccc4[nH]3)CCO2)cc1 (racemic),IC50,D(1A) dopamine receptor,> 100 µM
same,Ki,D(1A) dopamine receptor,> 100 µM
same,IC50,D(2) dopamine receptor [16],> 100 µM
same,Ki,D(2) dopamine receptor [16],> 100 µM
same,IC50,D(3) dopamine receptor,31.8 µM
same,Ki,D(3) dopamine receptor,10.8 µM
same,IC50,D(4) dopamine receptor,360 nM
same,Ki,D(4) dopamine receptor,140 nM
c1ccc(CCC2CN(c3ccccc3)CCO2)cc1 (racemic),inhibition,[1],5%
c1ccc(CCC2CN(Cc3ccccn3)CCO2)cc1 (racemic),inhibition,[1],23%
FC(F)(F)Oc1ccc(CN2CCO[C@H](CCc3ccccc3)C2)cc1,INH,D(1A) dopamine receptor,> 20 µM
same,IC50,D(3) dopamine receptor,8.17 µM
same,Ki,D(3) dopamine receptor,2.77 µM
same,IC50,D(4) dopamine receptor,230 nM
same,Ki,D(4) dopamine receptor,65 nM
same,inhibition,[1],96%
same,INH,[2],> 20 µM
same,INH,D(2) dopamine receptor [3],> 20 µM
same,Ki,D(2) dopamine receptor [4],5.5 µM
c1ccc(CCC2CN(Cc3ccccc3)CCO2)cc1 (racemic),IC50,D(4) dopamine receptor,1480 nM
same,Ki,D(4) dopamine receptor,410 nM
same,inhibition,[1],74%
Cn1c(N2CCOC(CCc3ccccc3)C2)nc2ccccc21 (racemic),inhibition,[1],17%
Fc1ccc(CN2CCOC(CCc3ccccc3)C2)cc1 (racemic),IC50,D(4) dopamine receptor,1140 nM
same,Ki,D(4) dopamine receptor,320 nM
same,inhibition,[1],88%
Cc1ccccc1CN1CCOC(CCc2ccccc2)C1 (racemic),IC50,D(4) dopamine receptor,3680 nM
same,Ki,D(4) dopamine receptor,1020 nM
same,inhibition,[1],54%
c1ccc(CC[C@@H]2CN(Cc3nc4ccccc4[nH]3)CCO2)cc1,IC50,D(1A) dopamine receptor,> 100 µM
same,Ki,D(1A) dopamine receptor,> 100 µM
same,IC50,D(2) dopamine receptor [16],> 100 µM
same,Ki,D(2) dopamine receptor [16],> 100 µM
same,IC50,D(3) dopamine receptor,46.2 µM
same,Ki,D(3) dopamine receptor,15.7 µM
same,IC50,D(4) dopamine receptor,180 nM
same,Ki,D(4) dopamine receptor,70 nM
same,fraction unbound,[10],0.012
same,fraction unbound,[11],0.133
same,IC50,Cytochrome P450 1A2,13.1 µM
same,IC50,Cytochrome P450 2C9,4.8 µM
same,IC50,Cytochrome P450 2D6,12 µM
same,IC50,Cytochrome P450 3A4,15.6 µM
same,concentration at 0.25 h,[12],1940 nM
same,concentration at 0.25 h,[13],3560 nM
same,Kp at 0.25 h,[14],1.8
same,Activity,Rattus norvegicus [17],inactive
same,Activity,Rattus norvegicus [15],inactive
FC(F)(F)Oc1ccc(CN2CCOC(CCc3ccccc3)C2)cc1 (racemic),INH,D(1A) dopamine receptor,> 20 µM
same,IC50,D(3) dopamine receptor,8.17 µM
same,Ki,D(3) dopamine receptor,2.77 µM
same,IC50,D(4) dopamine receptor,160 nM
same,Ki,D(4) dopamine receptor,43 nM
same,inhibition,[1],94%
same,INH,[2],> 20 µM
same,INH,D(2) dopamine receptor [3],> 20 µM
same,Ki,D(2) dopamine receptor [4],5.5 µM
Cc1ccc(C(=O)N2CCOC(CCc3ccccc3)C2)cc1 (racemic),inhibition,[1],17%
c1ccc(CC[C@H]2CN(Cc3nc4ccccc4[nH]3)CCO2)cc1,IC50,D(1A) dopamine receptor,> 100 µM
same,Ki,D(1A) dopamine receptor,> 100 µM
same,IC50,D(2) dopamine receptor [16],> 100 µM
same,Ki,D(2) dopamine receptor [16],> 100 µM
same,IC50,D(3) dopamine receptor,76.4 µM
same,Ki,D(3) dopamine receptor,25.9 µM
same,IC50,D(4) dopamine receptor,> 100000 nM
same,Ki,D(4) dopamine receptor,> 100000 nM

# Source: ChEMBL document CHEMBL3352711, “Discovery and Characterization of ML398, a Potent and Selective Antagonist of the D4 Receptor with in Vivo Activity” (ACS Med Chem Lett, 2014)
